Reference: patent publication US11643670B2, “Methods of enhancing chromosomal homologous recombination” (Massachusetts Institute of Technology, priority 2018, dated 2023)

Experiments:
Cas9 = molecular target: T1, Cas9 (Streptococcus pyogenes serotype M1, UniProt Q99ZW2); test: In vitro Cas9 digestion assay; assay type: biochemical, S. pyogenes; details: 10 ng/μL protein co-incubated, PCR amplimer of the Chd2^R1684H locus, 37° C. 1 hour
T1 construct: NLS (nuclear localization signal); purchased New England Biolabs
T1 sequence (Q99ZW2 whole entry): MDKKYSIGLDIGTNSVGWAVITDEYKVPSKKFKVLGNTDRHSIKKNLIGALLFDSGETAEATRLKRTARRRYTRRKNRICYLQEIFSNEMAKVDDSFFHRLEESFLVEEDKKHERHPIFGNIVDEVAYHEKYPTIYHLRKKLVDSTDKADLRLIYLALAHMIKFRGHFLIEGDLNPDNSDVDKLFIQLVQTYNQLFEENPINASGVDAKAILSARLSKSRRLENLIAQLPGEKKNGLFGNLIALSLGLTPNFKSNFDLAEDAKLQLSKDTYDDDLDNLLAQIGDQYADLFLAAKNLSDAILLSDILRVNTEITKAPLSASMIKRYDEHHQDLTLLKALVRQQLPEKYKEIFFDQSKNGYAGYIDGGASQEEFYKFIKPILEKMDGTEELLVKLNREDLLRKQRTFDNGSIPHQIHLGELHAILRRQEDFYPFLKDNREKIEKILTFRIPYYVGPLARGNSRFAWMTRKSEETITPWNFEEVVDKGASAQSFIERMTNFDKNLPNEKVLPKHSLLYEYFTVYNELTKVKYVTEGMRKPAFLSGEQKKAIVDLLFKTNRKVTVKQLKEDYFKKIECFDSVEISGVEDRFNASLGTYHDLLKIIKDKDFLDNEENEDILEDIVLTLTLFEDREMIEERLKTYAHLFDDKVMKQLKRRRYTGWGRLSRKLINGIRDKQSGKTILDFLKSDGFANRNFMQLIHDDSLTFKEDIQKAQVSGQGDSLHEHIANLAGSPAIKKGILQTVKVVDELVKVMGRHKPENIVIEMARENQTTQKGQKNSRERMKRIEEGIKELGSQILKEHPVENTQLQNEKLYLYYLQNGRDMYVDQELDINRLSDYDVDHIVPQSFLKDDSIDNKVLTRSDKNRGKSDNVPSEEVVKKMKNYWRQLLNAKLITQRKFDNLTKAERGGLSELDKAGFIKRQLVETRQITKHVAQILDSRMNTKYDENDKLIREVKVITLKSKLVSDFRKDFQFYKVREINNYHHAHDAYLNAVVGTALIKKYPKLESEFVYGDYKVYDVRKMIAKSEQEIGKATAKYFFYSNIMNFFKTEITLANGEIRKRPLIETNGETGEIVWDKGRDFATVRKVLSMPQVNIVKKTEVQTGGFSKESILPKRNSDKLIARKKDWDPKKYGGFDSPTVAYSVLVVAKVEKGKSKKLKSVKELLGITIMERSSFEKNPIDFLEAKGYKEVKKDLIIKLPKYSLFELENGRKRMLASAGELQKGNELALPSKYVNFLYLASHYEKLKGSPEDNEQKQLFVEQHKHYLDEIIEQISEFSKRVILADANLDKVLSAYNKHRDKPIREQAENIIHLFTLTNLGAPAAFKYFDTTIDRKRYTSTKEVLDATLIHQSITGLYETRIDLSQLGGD
Experimental: Wildtype or Chd2^R1684H/R1684H genomic DNA was used as input for PCR using the conditions described above and the primers specified in FIGS. 10A-10D and FIG. 12. After confirmation of a single band via gel electrophoresis, the PCR reactions were purified using the DNA Clean & Concentrator kit (Zymo) according to the manufacturer's instructions. crRNA and tracrRNA were diluted 1 μM in nuclease-free Duplex Buffer (IDT) and incubated at 95° C. for 5 minutes before being allowed to cool to room temperature on the bench. Digestion mixtures were made in separate tubes by combining nuclease-free water, 10× Cas9 Nuclease Reaction Buffer (final concentration 1×, New England Biolabs), 1 μL of the cooled crRNA/tracrRNA duplex, and, if necessary, 1 μL of EnGen Cas9 NLS, S. pyogenes (New England Biolabs). These mixtures were heated to 37° C. for 10 minutes before adding 250 ng PCR product and, if necessary, RAD51 G151D (10 ng/μL final concentration, custom-produced by Creative Biomart) or BCCIP (10 ng/μL final concentration, Origene TP303061). Digestion was performed at 37° C. for 1 hour, Cas9 was denatured at 95° C., 6× Purple Gel Loading Dye (New England Biolabs) was added to a final concentration of 1×, and the samples were allowed to passively cool to room temperature. […]

maternal Chd2 locus = test: Donor-free interchromosomal homologous recombination (ICHR) in IVF-derived Chd2^R1684H/+ embryos; assay type: cell-based, mouse
Experimental: tracrRNA, crRNAs, and ssODNs were synthesized by Integrated DNA Technologies (TABLE 1). All injection mixtures were prepared in a final volume of 50 μL according to the following methodology: Using RNase-free water, reagents, and consumables, crRNA (final concentration 0.61 μM), tracrRNA (final concentration 0.61 μM), and ultrapure Tris-HCl, pH 7.39 (final concentration 10 mM, ThermoFisher) were mixed and incubated at 95° C. for 5 minutes. The mixtures were cooled to room temperature for 10 minutes on the benchtop, and then, EnGen Cas9-NLS S. pyogenes (New England Biolabs) was added to a final concentration of 30 ng/μL. The mixtures were incubated at 37° C. for 15 minutes before adding any remaining components: ssODN (final concentration 3 ng/μL or 30 ng/μL), RAD51 (Creative Biomart, final concentration 10 ng/μL). Injection mixtures were stored on ice and briefly heated to 37° C. prior to injection. For experiments utilizing RS-1, embryos were cultured in KSOM-AA (EMD Millipore MR-121-D) with […] RS-1 (Sigma) dissolved in DMSO or DMSO (Sigma, 1:1000) for 24 hours, washed, and cultured in EmbryoMax FHM HEPES Buffered Medium (Sigma) until collection for genotyping.
For experiments using wildtype recombinant proteins, the following proteins were used: RAD51 (Creative Biomart RAD51-134H), USP1/WDR48 (Creative Biomart USP1&WDR48-1067H), BCCIP (Origene TP303061), XRCC1 (TP304952), XRCC4 (Origene TP312684), DMC1 (Origene TP318311). For experiments using mutant RAD51, custom RAD51 preparations were produced by Creative Biomart according to their standard protocol for producing the wildtype RAD51 used in all other experiments. Mutant DNA sequences used for cloning are described in TABLE 2. All RAD51 mutants were modeled in human RAD51 transcript variant 4 (NCBI accession NM_001164269), as this is the transcript variant of the wildtype RAD51-134H protein used in all other experiments.
In vitro fertilization was performed using FERTIUP® Mouse Preincubation Medium and CARD MEDIA (Kyudo Company) according to the manufacturer's protocol. Non-virgin Chd2^R1684H/R1684H males that were >8 weeks old were used as sperm donors. Following IVF, embryos were cultured for 8 hours and then injected using the PNI protocol described below.
For all experiments except those described in FIG. 6, the male pronucleus was injected. Injections performed for the CPI portion of FIG. 6 were targeted to the cytoplasm. All microinjections were performed using a Narishige Micromanipulator, Nikon Eclipse TE2000-S microscope, and Eppendorf 5242 microinjector. Individual zygotes were injected with 1-2 pL of injection mixture using an “automatic” injection mode set according to needle size and adjusted for clear increase in pronuclear volume. Following injections, cells were cultured in KSOM-AA until collection for genotyping. For experiments giving rise to F0 animals, embryos were surgically implanted into pseudopregnant CD-1 females (Charles River Laboratories, Strain Code 022) 24-hours post-injection and allowed to develop normally until natural birth.
Embryos were collected at morula-to-blastocyst stage in 4 μL nuclease-free water. After collection, 4 μL of 2× embryo digestion buffer was added to each sample (final concentrations: 125 μg/mL proteinase K, 100 mM Tris-HCl pH 8.0, 100 mM KCl, 0.02% gelatin, 0.45% Tween-20, 60 μg/mL yeast tRNA) and embryos were lysed for 1 hour at 56° C. Proteinase K was inactivated via incubation at 95° C. for 10 minutes and DNA was stored at −20° C. until use.
Chd2^R1684H genotyping was performed via a two-step, nested approach. Except for experiments described in FIGS. 3A-3G, all 8 μL of embryo DNA were used as input for the initial, long round of PCR. Genotyping of mouse pups and adult animals was performed using 2 μL of purified tail DNA. For all embryo genotyping, reactions mixtures were set up in a UV-sterilized laminar flow hood using sterile reagents and filter tips to avoid contamination. […]

[1] = co-injected with Cas9/crRNA/tracrRNA, no donor
[2] = compared to embryos injected with wildtype RAD51

Substance	direct inhibition of Cas9 nuclease activity (Cas9)	efficiency of ICHR stimulation (maternal Chd2 locus)	embryos with mosaic ICHR that were mosaic with an indel (maternal Chd2 locus)	indel-to-ICHR ratio (level) (maternal Chd2 locus)	ICHR rate compared with baseline (Cas9-only embryos) (maternal Chd2 locus; [1])	edited embryos showing ICHR (maternal Chd2 locus; [1])	indel-to-ICHR ratio (maternal Chd2 locus; compared to control embryos)	overall indel rate (maternal Chd2 locus; compared to control embryos)	indel-to-ICHR ratio (maternal Chd2 locus; [2])	overall indel rate (maternal Chd2 locus; [2])	effect on mosaicism in embryos exhibiting ICHR (maternal Chd2 locus; compared to enhancer-free embryos)
BCCIP: recombinant BRCA2-interacting protein BCCIP (Origene TP303061)	not due to direct inhibition of Cas9 activity	~100%	1/14	near zero	significantly stronger effect on ICHR rates than USP1/WDR48	95%	drastic decrease	drastic decrease	significant decreases	significant decreases	strong effect on mosaicism
G151D: recombinant RAD51 gain-of-function mutant with increased strand exchange activity, SEQ ID NO: 8	did not observe any direct inhibition of Cas9 activity	–	–	–	–	–	–	–	–	–	–
